{"source": "patent US20170320939A1", "about": "“COLL2-1 PEPTIDE AND ITS NITRATED FORM AS THERAPEUTIC TARGETS FOR OSTEOARTHRITIS TREATMENT” (Université de Liège, priority 2014, published 2017)", "key": {"female Lewis rats": {"system": "female Lewis rats", "experiment": "In-vivo study, I.A. injection compared to SCW (streptococcal cell walls) model", "conditions": "for global histological score, right knee (injected): not significant", "protocol": "An in-vivo study was performed to evaluate the potential immunizing effect of Coll2-1 peptide. This effect was evaluated in comparison with two validated models of rheumatoid arthritis: CIA (Collagen induced arthritis) and SCW (Streptococcal cell walls). The peptide has been injected once subcutaneous, at the base of the tail (S.C.—evaluation of systemic inflammation) or intra-articular (I.A.—evaluation of mono-articular inflammation) in female Lewis rats. Naïve controls (saline) were considered. Animals were euthanized 21 or 28 days after injection.\nAll animals (n=108 females; 96.0-129.7 gr) included in the study were identified by a unique chip. They were randomly distributed into 8 study groups (n=16/group except nave controls n=6/group, n=8/each time point) before induction (DO) based on their body weight (FIG. 1). • Injected controls (2 groups) • Group 1: bovin type II collagen (CIA)—S.C. (n=16) • Group 2: streptococcal cell wail (SCW)—I.A. (n=16) • Test groups (4 groups) • Group 3: Peptide dose 200 μg/100 μl—S.C. (n=16) • Group 4: Peptide dose 20 μg/100 μl—S.C. (n=16) • Group 5: Peptide dose 5 μg/50 μl—I.A. (n=16) • Group 6: Peptide dose 0.5 μg/50 μl—I.A. (n=16) • Naïve controls (2 groups) • Group 7: saline S.C. (n=6) • Group 8: saline I.A. (n=6)\nTwo injection ways were chosen to evaluate the potential effect of the peptide: intra-articular (I.A.) and subcutaneous (S.C.), two route classically used in the art.\nColl2-1 peptide was administered either I.A. under a 50 μL volume into the right knee or S.C. under a 100 μL volume at the base of the tail.\nSCW was administered I.A. into the right knee under a 50 μL volume. Bovine type II collagen (CIA) was administered under 100 μL volume at the base of the tail.\nTwo doses of the Coll2-1 peptide were tested in both conditions.\nIt was administered I.A. at 5 and 0.5 μg under 50 μL\nColl2-1 peptide was administered once (DO).\nJoint was considered arthritic when significant signs of redness and/or swelling was noted. Each paw was evaluated with a visual score (0-3) • 0: normal, no joint inflammation • 1: large joint inflammation • 2: medium joint inflammation • 3: small joint (distal) inflammation\nA set of 4 values were recorded on each evaluation day. The 4 values were summed for analysis.\nRight and left knees diameter were measured using a digital caliper.\nAnimals were euthanized 21 or 28 days after injection (D0). They were anesthetized with a subcutaneous injection of a Ketamin/Medetomidine mix and further euthanized by exsanguination.\nBoth entire knees from each animal were processed for histological analysis, They were decalcified in a HCl/EDTA mix (DC2, Qpath, VWR Belgium) for the appropriate time before inclusion in paraffin. Three frontal sections (5 μm) of each compartment were done 200 μm apart in the weight bearing zone using a microtome. Slides were stained according to a standard Safranin-O/Fast green protocol.\nSlides were evaluated under a light microscope. Each slide was score for: • Infiltration of inflammatory cells in synovial tissue (0-3) • Inflammatory cells in the joint cavity (exudate) (0-3) • Cartilage proteoglycan depletion (0-3) • Loss of articular cartilage (0-3) • Bone erosion (0-3).\nInfiltration of inflammatory cells in synovial tissue and inflammatory cells in the joint cavity were considered together (sum of the scores) as inflammatory parameters for the analysis of the detailed criteria.\nStatistical analysis was performed with the appropriate test using GraphPad. • Visual score and evaluations (knee diameter measurements) were analyzed with a two way ANOVA followed, if positive, by Tukey's multiple comparison test. Graphs represented the mean of each group at each evaluated time point. • Histological scores were analyzed with a Kruskal Wallis for non-parametric values followed, if positive, by a Dunn's multiple comparison test. Graphs presented as box and whisker plots. Exact p values were provided and asterisks representation were also performed."}, "VEGF": {"system": "VEGF", "experiment": "VEGF mRNA expression by Real Time PCR in OA synovial fibroblast cells", "assay_type": "cell-based, human", "conditions": "increasing concentrations: Coll2-1 (0.45 and 4.5 nmol) or Coll2-1NO2 (4 and 40 pmol), 24 hours", "protocol": "(§1) 1.3 Treatment of synovial fibroblast cells. Cells were seeded into a six-well plate at the density of 2×10^5 cells/well in 2 ml of CM. When the cells reached confluence, the CM was replaced with 1% serum medium for 24 h to keep the cells quiescent. Cells were incubated for 24 hours with or without peptides Coll2-1 (^108HRGYPGLDG^116; 0.45 and 4.5 nmol) or Coll2-1NO2 (^108HRGYPGLDG-NO2^116; 4 and 40 pmol) at a range of concentrations found in the blood of osteoarthritic patients.\n(§2) 1.4 RNA extraction and Real Time Reverse Transcriptase-Polymerase Chain Reaction (RT PCR). Total RNA were extracted using the RNeasy Mini Kit (Qiagen, Netherlands) and were reverse transcribed with SuperScript III Reverse Transcriptase (Invitrogen, Belgium) according to the manufacturer's instructions. The cDNAs were quantified by real-time quantitative PCR using the Rotor Gene instrument (Qiagen, Venlo, Netherlands) and the SYBR Premix Ex Taq kit (Takara, Verviers, Belgium). The level of gene expression was determined by interpolation with a standard curve. To standardize mRNA levels, HPRT, a house keeping gene, was amplified as an internal control. […]"}, "IL-6": {"system": "IL-6", "experiment": "IL-6 mRNA expression by Real Time PCR in OA synovial fibroblast cells", "assay_type": "cell-based, human", "conditions": "increasing concentrations of peptide, 24 hours", "protocol": "as §1, §2"}}, "data": [{"sequence": "HRGYPGLDG [Coll2-1]", "values": [{"measurement": "cartilage degradation score, left knee", "setting": "female Lewis rats; Coll2-1 0.5 μg I.A. (Gr6)", "result": "significant increase"}, {"measurement": "inflammatory score, left knee, versus Gr8", "setting": "female Lewis rats; Coll2-1 0.5 μg I.A. (Gr6)", "result": "significant increase"}, {"measurement": "matrix proteoglycan loss score, left knee, versus Gr8", "setting": "female Lewis rats; Coll2-1 0.5 μg I.A. (Gr6)", "result": "significant increase"}, {"measurement": "right knee diameter, difference versus Gr8 (saline)", "setting": "female Lewis rats; Coll2-1 0.5 μg I.A. (Gr6), D3", "result": "statistically different"}, {"measurement": "arthritis visual score, difference versus saline (Gr8)", "setting": "female Lewis rats; Coll2-1 0.5 μg I.A. (Gr6), D28", "result": "statistically different"}, {"measurement": "cartilage degradation score, right knee, versus Gr8", "setting": "female Lewis rats; Coll2-1 0.5 μg I.A. (Gr6), D28", "result": "significant increase"}, {"measurement": "global histological score, left knee, difference versus Gr2", "setting": "female Lewis rats; Coll2-1 0.5 μg I.A. (Gr6), D28", "result": "not significant except for Gr6"}, {"measurement": "global histological score, left knee, difference versus Gr8", "setting": "female Lewis rats; Coll2-1 0.5 μg I.A. (Gr6), D28", "result": "not significant except for Gr6"}, {"measurement": "global histological score, right knee (injected)", "setting": "female Lewis rats; Coll2-1 0.5 μg I.A. (Gr6)", "result": "intermediate between Gr8 (saline) and Gr2 (SCW)"}, {"measurement": "global histological score, left knee, differences", "setting": "female Lewis rats; Coll2-1 5 μg I.A. (Gr5)", "result": "not significant"}, {"measurement": "arthritis visual score, difference versus Gr 6 (Coll2-1 peptide 0.5 μg)", "setting": "female Lewis rats; Coll2-1 5 μg I.A. (Gr5), D17", "result": "statistically different"}, {"measurement": "arthritis visual score, difference versus saline (Gr8)", "setting": "female Lewis rats; Coll2-1 5 μg I.A. (Gr5), D17", "result": "statistically different"}, {"measurement": "left knee diameter, difference versus Gr2 (SCW)", "setting": "female Lewis rats; Coll2-1 5 μg I.A. (Gr5), D17", "result": "statistically different"}, {"measurement": "left knee diameter, difference versus Gr8 (saline)", "setting": "female Lewis rats; Coll2-1 5 μg I.A. (Gr5), D17", "result": "statistically different"}, {"measurement": "right knee diameter, difference versus Gr8 (saline)", "setting": "female Lewis rats; Coll2-1 5 μg I.A. (Gr5), D17", "result": "statistically significance"}, {"measurement": "arthritis visual score, difference versus SCW (Gr2)", "setting": "female Lewis rats; Coll2-1 5 μg I.A. (Gr5), D24", "result": "statistically different"}, {"measurement": "global histological score, right knee (injected)", "setting": "female Lewis rats; Coll2-1 5 μg I.A. (Gr5)", "result": "intermediate between Gr8 (saline) and Gr2 (SCW)"}, {"measurement": "right knee diameter, difference Gr5 versus Gr6", "setting": "female Lewis rats; Coll2-1 5 μg versus 0.5 μg I.A., D17", "result": "statistically different"}, {"measurement": "inflammatory criteria, right knee", "setting": "female Lewis rats; Coll2-1 peptide I.A., D28, not statistically significant", "result": "intermediate increase"}, {"measurement": "histological score (conclusion)", "setting": "female Lewis rats; SCW arthritis model, I.A. injection, D21 and D28", "result": "intermediate scores"}, {"measurement": "arthritis visual score", "setting": "female Lewis rats; single I.A. injection into the right knee, D0 to D28", "result": "induced an increase"}, {"measurement": "VEGF expression", "setting": "VEGF", "result": "tended to increase"}, {"measurement": "IL-6 expression", "setting": "IL-6", "result": "increased"}]}]}
